Our source for the TGI values is PubChem BioAssay (NCI).

Each structure is given as a SMILES string.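 Growth conditions: 96-well plates. Treatment: test compound, 48 hours, 5 concentrations. Analysis: linear interpolation between bracketing concentrations; unreached endpoints set to highest concentration. TGI denotes the concentration required for complete inhibition of growth.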 Some results are limits rather than exact numbers.

Among the test systems are DU-145 prostate; OVCAR-5 ovarian; SK-MEL-2 melanoma; HS 578T breast; BT-549 breast; IGROV1 ovarian; A549 NSCLC; 786-0 renal; RXF 393 renal; SK-MEL-5 melanoma; SF-539 CNS; UACC-257 melanoma.
Test in all cases: growth of human tumour cells (NCI), 48 h

Consider `O=C(Oc1ccccc1)c1cc2cc(CCl)ccc2oc1=O`, for which the TGI in the experiment with DU-145 prostate was 98.7 µM; in the experiment with OVCAR-5 ovarian, above 100 µM; with SK-MEL-2 melanoma it was 15.3 µM; in the experiment with HS 578T breast, 52.8 µM; with BT-549 breast, above 100 µM; with IGROV1 ovarian it was above 100 µM. Moreover, the TGI in the experiment with A549 NSCLC is above 100 µM; in the experiment on 786-0 renal, 64.4 µM; with RXF 393 renal, 27.9 µM; in the experiment with SK-MEL-5 melanoma, 27.5 µM; with SF-539 CNS it was above 100 µM; in the experiment on UACC-257 melanoma it was 27.5 µM.

In the case of `CCSC1=N/C(=C\c2ccccc2O)C(Nc2ccc(C)cc2)=N1`, the TGI in the experiment on DU-145 prostate, with OVCAR-5 ovarian, in the experiment with SK-MEL-2 melanoma, in the experiment on HS 578T breast, in the experiment with BT-549 breast and with IGROV1 ovarian was above 100 µM throughout. Besides, the TGI in the experiment with A549 NSCLC, in the experiment on 786-0 renal, with RXF 393 renal, in the experiment with SK-MEL-5 melanoma, in the experiment on SF-539 CNS and in the experiment on UACC-257 melanoma was above 100 µM throughout.

Regarding `C/C(=N\Nc1ccc([N+](=O)[O-])cc1[N+](=O)[O-])c1ccc2ccccc2n1`, the TGI in the experiment with DU-145 prostate, in the experiment on OVCAR-5 ovarian, in the experiment with SK-MEL-2 melanoma, in the experiment on HS 578T breast, with BT-549 breast and with IGROV1 ovarian was above 100 µM in each case. Moreover, the TGI in the experiment on A549 NSCLC, with 786-0 renal, in the experiment on RXF 393 renal, in the experiment on SK-MEL-5 melanoma, in the experiment with SF-539 CNS and in the experiment with UACC-257 melanoma was above 100 µM throughout.

Regarding `CN1C(c2ccccc2)=CC(=O)C(O)=C(c2ccccc2)S1(=O)=O`, the TGI with DU-145 prostate, with OVCAR-5 ovarian, in the experiment with SK-MEL-2 melanoma, with HS 578T breast, with BT-549 breast and with IGROV1 ovarian was above 100 µM in each case. Further, the TGI in the experiment with A549 NSCLC, in the experiment on 786-0 renal, in the experiment on RXF 393 renal, in the experiment on SK-MEL-5 melanoma, in the experiment with SF-539 CNS and with UACC-257 melanoma was above 100 µM each time.

For the compound `CC(C)CCC1(O)O[C@H]2C[C@H]3[C@@H]4CCC5CC(=O)C=C[C@]5(C)[C@H]4CC[C@]3(C)[C@H]2[C@@H]1C` (some centres undefined), the TGI in the experiment on DU-145 prostate turned out to be 28.2 µM; in the experiment with OVCAR-5 ovarian, 26.2 µM; in the experiment with SK-MEL-2 melanoma, 29.6 µM; with HS 578T breast it was 7.31 µM; in the experiment on BT-549 breast it was 27.3 µM; in the experiment with IGROV1 ovarian it was 30.3 µM. Moreover, the TGI in the experiment on A549 NSCLC worked out at 28.2 µM; in the experiment with 786-0 renal, 25.4 µM; with RXF 393 renal it was 24.2 µM; in the experiment with SK-MEL-5 melanoma, 26.7 µM; with SF-539 CNS it was 31.7 µM; in the experiment on UACC-257 melanoma, 28.3 µM.

For `NC1CC(=O)c2csc(Br)c21` (centres undefined), the TGI in the experiment with DU-145 prostate is above 52.1 µM; with OVCAR-5 ovarian, 29.3 µM; with SK-MEL-2 melanoma, 31.3 µM; in the experiment with HS 578T breast, 46.5 µM; in the experiment on BT-549 breast it was 26.5 µM; with IGROV1 ovarian, 25.4 µM. Moreover, the TGI was above 100 µM in the experiment on A549 NSCLC; above 50.7 µM with 786-0 renal; 36 µM with RXF 393 renal; above 59.2 µM in the experiment on SK-MEL-5 melanoma; 8.24 µM in the experiment with SF-539 CNS; 34.8 µM with UACC-257 melanoma.

On to `CC(NS(C)(=O)=O)c1ccccc1` (centres undefined), for which the TGI with DU-145 prostate, in the experiment with OVCAR-5 ovarian, in the experiment with SK-MEL-2 melanoma, with HS 578T breast, in the experiment with BT-549 breast and in the experiment on IGROV1 ovarian was above 100 µM each time. In addition, the TGI in the experiment with A549 NSCLC, in the experiment on 786-0 renal, in the experiment on RXF 393 renal, with SK-MEL-5 melanoma, in the experiment with SF-539 CNS and in the experiment with UACC-257 melanoma was above 100 µM throughout.

Turning to `O=C(O)CSCC(=O)Nc1ccc2cccc3c2c1CC3`, the TGI in the experiment with DU-145 prostate, in the experiment on OVCAR-5 ovarian, with SK-MEL-2 melanoma, in the experiment on HS 578T breast, in the experiment with BT-549 breast and in the experiment on IGROV1 ovarian was above 100 µM each time. For the same compound, the TGI with A549 NSCLC, in the experiment with 786-0 renal, in the experiment on RXF 393 renal, with SK-MEL-5 melanoma, in the experiment on SF-539 CNS and with UACC-257 melanoma was above 100 µM throughout.

Regarding `CC(=O)Oc1ccc2c(c1)c1c(=O)oc(N(C)C)nc1n2Cc1ccccc1`, the TGI in the experiment with DU-145 prostate, in the experiment with OVCAR-5 ovarian, in the experiment with SK-MEL-2 melanoma, in the experiment on HS 578T breast, with BT-549 breast and in the experiment on IGROV1 ovarian was above 100 µM each time. For the same compound, the TGI with A549 NSCLC, in the experiment with 786-0 renal, with RXF 393 renal, in the experiment on SK-MEL-5 melanoma, in the experiment with SF-539 CNS and with UACC-257 melanoma was above 100 µM throughout.

With `COc1cccc2cc(C(N)=O)c(=N)oc12`, the TGI was above 100 µM in the experiment with DU-145 prostate; above 100 µM in the experiment on OVCAR-5 ovarian; 60.7 µM in the experiment on SK-MEL-2 melanoma; 97.5 µM in the experiment on HS 578T breast; above 100 µM with BT-549 breast; above 100 µM with IGROV1 ovarian. In addition, the TGI in the experiment on A549 NSCLC, with 786-0 renal, with RXF 393 renal, in the experiment with SK-MEL-5 melanoma, in the experiment with SF-539 CNS and with UACC-257 melanoma was above 100 µM throughout.

As to `Nc1nc(Cl)cc(NCC2(CO)CCC(Cc3ccccc3)C2)n1` (centres undefined), the TGI with DU-145 prostate was above 100 µM; in the experiment with OVCAR-5 ovarian, above 100 µM; in the experiment with SK-MEL-2 melanoma, above 75.7 µM; with HS 578T breast, above 79.9 µM; with BT-549 breast, 78.7 µM; in the experiment with IGROV1 ovarian it was above 100 µM. For the same compound, the TGI in the experiment with A549 NSCLC was above 100 µM; in the experiment on 786-0 renal it was above 100 µM; with RXF 393 renal it was above 80.5 µM; in the experiment with SK-MEL-5 melanoma it was 15.6 µM; with SF-539 CNS it was above 100 µM; in the experiment with UACC-257 melanoma, above 50.7 µM.

Consider `CC(=O)Nc1ccc(CNc2cc(=O)[nH]c(=O)[nH]2)cc1`, for which the TGI in the experiment with DU-145 prostate, with OVCAR-5 ovarian, in the experiment on SK-MEL-2 melanoma, with HS 578T breast, in the experiment with BT-549 breast and with IGROV1 ovarian was above 100 µM throughout. For the same compound, the TGI with A549 NSCLC, in the experiment with 786-0 renal, in the experiment on RXF 393 renal, in the experiment with SK-MEL-5 melanoma, in the experiment on SF-539 CNS and in the experiment with UACC-257 melanoma was above 100 µM throughout.

`COc1ccc2c3c1OC1C(=O)C=CC4(O)C(C2)NCC[C@@]314` (some centres undefined): the TGI with DU-145 prostate was 13.1 µM; in the experiment with OVCAR-5 ovarian, 8.84 µM; with SK-MEL-2 melanoma it was 6.65 µM; in the experiment with HS 578T breast, 6.39 µM; in the experiment on BT-549 breast it was 6.32 µM; with IGROV1 ovarian it was 15.1 µM. The TGI in the experiment with A549 NSCLC stood at 18.2 µM; in the experiment on 786-0 renal it was 5.02 µM; with RXF 393 renal it was 3.74 µM; with SK-MEL-5 melanoma, 16.4 µM; with SF-539 CNS, 4.02 µM; in the experiment on UACC-257 melanoma, 5.3 µM.

Consider `COC(=O)NCCc1[nH]nc2c1C(=O)C=C(Nc1ccccc1)C2=O`, for which the TGI is above 100 µM in the experiment with DU-145 prostate; above 100 µM in the experiment on OVCAR-5 ovarian; 99.4 µM in the experiment on SK-MEL-2 melanoma; above 100 µM in the experiment on HS 578T breast; above 100 µM in the experiment with BT-549 breast; 65.2 µM in the experiment on IGROV1 ovarian. In addition, the TGI is above 100 µM with A549 NSCLC; above 100 µM in the experiment on 786-0 renal; above 100 µM in the experiment on RXF 393 renal; 32.2 µM in the experiment with SK-MEL-5 melanoma; 52.4 µM in the experiment on SF-539 CNS; 32.3 µM in the experiment with UACC-257 melanoma.

Regarding `N#Cc1[nH]c(=O)n(-c2ccc(Cl)cc2)c1N`, the TGI in the experiment on DU-145 prostate, with OVCAR-5 ovarian, in the experiment on SK-MEL-2 melanoma, in the experiment on HS 578T breast, with BT-549 breast and in the experiment on IGROV1 ovarian was above 10 µM in each case. Also, the TGI in the experiment on A549 NSCLC, with 786-0 renal, in the experiment with RXF 393 renal, in the experiment with SK-MEL-5 melanoma, in the experiment with SF-539 CNS and with UACC-257 melanoma was above 10 µM throughout.

`NNC(=O)c1c(Cl)c(Cl)c(Cl)c(Cl)c1-c1nc2ccccc2[nH]1`: the TGI in the experiment on DU-145 prostate is 38.3 µM; in the experiment with OVCAR-5 ovarian, above 100 µM; with SK-MEL-2 melanoma it was 29.4 µM; with HS 578T breast, 86.8 µM; in the experiment on BT-549 breast, 46.5 µM; in the experiment with IGROV1 ovarian, 27.7 µM. Moreover, the TGI in the experiment with A549 NSCLC was 45.7 µM; in the experiment on 786-0 renal, 55.8 µM; in the experiment on RXF 393 renal it was 21.9 µM; in the experiment with SK-MEL-5 melanoma, 29.9 µM; in the experiment on SF-539 CNS, above 100 µM; in the experiment on UACC-257 melanoma it was 28.1 µM.

For the compound `CC(C)OP(=O)(CN(C)/C(F)=N\C(F)(F)F)OC(C)C`, the TGI in the experiment with DU-145 prostate, with OVCAR-5 ovarian, in the experiment on SK-MEL-2 melanoma, in the experiment with HS 578T breast, in the experiment on BT-549 breast and in the experiment with IGROV1 ovarian was above 100 µM each time. Further, the TGI in the experiment on A549 NSCLC, with 786-0 renal, in the experiment on RXF 393 renal, in the experiment on SK-MEL-5 melanoma, in the experiment with SF-539 CNS and with UACC-257 melanoma was above 100 µM each time.
